In US11571418B2, “Platinum compounds that inhibit constitutive STAT3 signaling and induce cell cycle arrest and apoptosis of malignant cells” (H. LEE MOFFITT CANCER CENTER AND RESEARCH INSTITUTE, INC., priority 2011, dated 2023):

Target: T1, Stat1 (Mus musculus, UniProt P42225)
T1 construct: Nuclear extract preparation from NIH3T3 stimulated by rhIL-6, NIH3T3/hEGFR stimulated by rhEGF; endogenous in cells; host or cells: NIH3T3/hEGFR fibroblasts stimulated with rhEGF (nuclear extract)
T1 sequence (P42225 2-749 limits assumed): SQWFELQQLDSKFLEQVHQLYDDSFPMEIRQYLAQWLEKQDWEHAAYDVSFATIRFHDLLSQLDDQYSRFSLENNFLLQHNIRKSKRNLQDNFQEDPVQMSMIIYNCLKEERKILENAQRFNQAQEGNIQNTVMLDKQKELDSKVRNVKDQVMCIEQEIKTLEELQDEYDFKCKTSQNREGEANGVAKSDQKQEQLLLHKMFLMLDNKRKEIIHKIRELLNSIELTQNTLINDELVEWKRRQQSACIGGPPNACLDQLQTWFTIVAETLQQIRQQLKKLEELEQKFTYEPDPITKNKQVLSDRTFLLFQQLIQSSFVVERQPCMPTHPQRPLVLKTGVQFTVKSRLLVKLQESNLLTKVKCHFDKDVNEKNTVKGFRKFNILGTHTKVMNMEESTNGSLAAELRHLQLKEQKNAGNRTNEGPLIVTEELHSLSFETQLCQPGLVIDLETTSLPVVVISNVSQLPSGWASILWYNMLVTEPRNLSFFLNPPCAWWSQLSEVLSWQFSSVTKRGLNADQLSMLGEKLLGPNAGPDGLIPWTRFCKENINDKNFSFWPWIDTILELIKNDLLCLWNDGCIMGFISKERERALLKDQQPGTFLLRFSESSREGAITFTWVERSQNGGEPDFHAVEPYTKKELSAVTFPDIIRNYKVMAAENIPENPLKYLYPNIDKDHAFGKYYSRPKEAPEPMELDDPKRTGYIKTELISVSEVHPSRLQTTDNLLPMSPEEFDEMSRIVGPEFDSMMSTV
Assay: In vitro Stat1 DNA-binding activity assay, EMSA with hSIE or MGFe probe
Description: FIGS. 1A-1E. Inhibition of in vitro Stat3 DNA-binding activity by a platinum complex. Nuclear extracts or cell lysates containing activated Stat1, Stat3 and Stat5, or E2F1 prepared from NIH3T3/hEGFR that are stimulated with EGF or Sf-9 insect cells that are infected with baculovirus expressing Stat1, Stat3, Stat5, or E2F1, respectively, were treated with or without the indicated concentrations of platinum complex, PLATINUM-401 or Cisplatin, for 30 min at room temperature prior to incubation with radiolabeled oligonucleotide probes, and subjected to EMSA analysis. (FIG. 1A) (i) Stat1 and Stat3 binding activities to hSIE probe, (ii) Stat1 and Stat5 binding activities to MGFe probe, and (iii) plot of % oligonucleotide probe-STAT:STAT complexes versus concentration of PLATINUM-401. […] Positions of STAT: STAT-DNA complexes in gel are labeled. In (A) to (C), the control lanes represent DMSO (vehicle)-treatment.
Nuclear extract preparation and gel shift assays—Nuclear extract preparation from NIH3T3 stimulated by rhIL-6, NIH3T3/hEGFR stimulated by rhEGF, v-Src-transformed fibroblasts (NIH3T3/v-Src) or tumor cell lines and electrophoretic mobility shift assay were carried out as previously described (Turkson et al., 1998; Garcia et al., 1997; Yu et al., 1995). The ^32P-labeled oligonucleotide probes used are hSIE (high affinity sis-inducible element from the c-fos gene, m67 variant, 5′-[…]) (SEQ ID NO:1) that binds Stat1 and Stat3 (Garcia et al., 1997; Wagner et al., 1990) and MGFe (mammary gland factor element from the bovine β-casein gene promoter, 5′-AGATTTCTAGGAATTCAA) (SEQ ID NO:2) for Stat1 and Stat5 binding (49,50). Except where indicated, inhibitor compound was pre-incubated with the nuclear extract for 30 min at room temperature prior to incubation with radiolabeled probe.
Compounds from the NCI 2000 diversity set were screened for inhibition of Stat3 signaling in an in vitro DNA-binding activity assay based on analysis by electrophoretic mobility shift assay (EMSA). […]

CC(O)CN1CCN(CC(C)O)CC1 (centres unmarked) [PLATINUM-401]
IC50: 4.1 µM
effect on DNA-binding activity of Stat1:Stat1 homodimer (pre-incubated 30 min before probe): to a lesser extent
